# Laboratory results taken from patent publication US20060069132A1, “Azolecarboxamide herbicides” (priority 2004, published 2006).
# How the values were obtained:
# [1] = system: barnyardgrass; assay: Test B pre-/postemergence herbicide test; assay type: in vivo, Echinochloa crus-galli; conditions: for Plant response rating, Barnyardgrass: preemergence; for Barnyardgrass plant response rating: postemergence, visual rating, scale 0 (no effect) to 100 (complete control)
# In short: (§1)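 Species tested were Echinochloa crus-galli, Ipomoea coccinea, Xanthium strumarium and Oryza sativa, treated both before emergence and at the 1- to 4-leaf stage; rice and barnyardgrass were also tested under flooding at 2 leaves. Greenhouse incubation lasted 13–15 days before visual 0–100 scoring.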
# [2] = system: Surinam grass; assay: Test B pre-/postemergence herbicide test; assay type: in vivo, Urochloa decumbens; conditions: for Plant response rating, Surinam Grass: preemergence; for Surinam Grass plant response rating: postemergence, visual rating, scale 0 (no effect) to 100 (complete control)
# In short: (§2)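 Test chemicals in a non-phytotoxic solvent mixture with surfactant were applied preemergence to seeded species and postemergence to plants 2-18 cm tall (1- to 4-leaf stage); rice and barnyardgrass were also tested in a flooded paddy at the 2-leaf stage. Visual rating versus controls after 13-15 days in greenhouse, scale 0 (no effect) to 100 (complete control).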
# [3] = system: cocklebur; assay: Test B pre-/postemergence herbicide test; assay type: in vivo, Xanthium strumarium; conditions: for Plant response rating, Cocklebur: preemergence; for Cocklebur plant response rating: postemergence, visual rating, scale 0 (no effect) to 100 (complete control)
# In short: as §1
# [4] = system: corn; assay: Test B pre-/postemergence herbicide test; assay type: in vivo, Zea mays; conditions: for Plant response rating, Corn: preemergence; for Corn plant response rating: postemergence, visual rating, scale 0 (no effect) to 100 (complete control)
# In short: as §2
# [5] = system: large crabgrass; assay: Test B pre-/postemergence herbicide test; assay type: in vivo, Digitaria sanguinalis; conditions: for Plant response rating, Crabgrass, Large: preemergence; for Crabgrass, Large plant response rating: postemergence, visual rating, scale 0 (no effect) to 100 (complete control)
# In short: as §2
# [6] = system: giant foxtail; assay: Test B pre-/postemergence herbicide test; assay type: in vivo, Setaria faberi; conditions: for Plant response rating, Foxtail, Giant: preemergence; for Foxtail, Giant plant response rating: postemergence, visual rating, scale 0 (no effect) to 100 (complete control)
# In short: as §2
# [7] = system: lambsquarters; assay: Test B pre-/postemergence herbicide test; assay type: in vivo, Chenopodium album; conditions: for Plant response rating, Lambsquarters: preemergence; for Lambsquarters plant response rating: postemergence, visual rating, scale 0 (no effect) to 100 (complete control)
# In short: as §2
# [8] = system: morningglory; assay: Test B pre-/postemergence herbicide test; assay type: in vivo, Ipomoea coccinea; conditions: for Plant response rating, Morningglory: preemergence; for Morningglory plant response rating: postemergence, visual rating, scale 0 (no effect) to 100 (complete control)
# In short: as §1
# [9] = system: pigweed; assay: Test B pre-/postemergence herbicide test; assay type: in vivo, Amaranthus retroflexus; conditions: for Plant response rating, Pigweed: preemergence; for Pigweed plant response rating: postemergence, visual rating, scale 0 (no effect) to 100 (complete control)
# In short: as §2
# [10] = system: velvetleaf; assay: Test B pre-/postemergence herbicide test; assay type: in vivo, Abutilon theophrasti; conditions: for Plant response rating, Velvetleaf: preemergence; for Velvetleaf plant response rating: postemergence, visual rating, scale 0 (no effect) to 100 (complete control)
# In short: as §2
# [11] = system: blackgrass; assay: Test B postemergence herbicide test; assay type: in vivo, Alopecurus myosuroides; conditions: postemergence, visual rating, scale 0 (no effect) to 100 (complete control)
# In short: (§3)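 Plants grow to 1- to 4-leaf stage (2–18 cm) for postemergence spraying, or to 2-leaf stage for the paddy test. Formulated compound is applied. Greenhouse holding lasts 13–15 days. Response is scored visually relative to controls, 0 no effect to 100 complete control; a dash means no result.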
# [12] = system: wheat; assay: Test B postemergence herbicide test; assay type: in vivo, Triticum aestivum; set-up: key to Wheat plant response rating: 0 = no effect, 100 = complete control; conditions: postemergence, visual rating, scale 0 (no effect) to 100 (complete control)
# In short: as §3
# [13] = system: wild oat; assay: Test B postemergence herbicide test; assay type: in vivo, Avena fatua; conditions: postemergence, visual rating, scale 0 (no effect) to 100 (complete control)
# In short: as §3
# [14] = system: rice; assay: Test B flooded paddy test; assay type: in vivo, Oryza sativa; conditions: 1000 g ai/ha, visual rating, scale 0 to 100 (0 no effect, 100 complete control), 13 to 15 days
# In short: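 Paddy species grown to the 2-leaf stage under flooding; blackgrass sprayed postemergence at 2–18 cm (1- to 4-leaf stage). Plants kept in a greenhouse for 13 to 15 days, then visually rated against controls on 0 (no effect) to 100 (complete control).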
# [15] = system: small flower umbrella sedge; assay: Test B flooded paddy test; assay type: in vivo, Cyperus difformis; conditions: 1000 g ai/ha, visual rating, scale 0 to 100 (0 no effect, 100 complete control), 13 to 15 days
# In short: as §3
# [16] = system: ducksalad; assay: Test B flooded paddy test; assay type: in vivo, Heteranthera limosa; conditions: 1000 g ai/ha, visual rating, scale 0 to 100 (0 no effect, 100 complete control), 13 to 15 days
# In short: as §3
# [17] = system: barnyardgrass; assay: Test B flooded paddy test; assay type: in vivo, Echinochloa crus-galli; conditions: 1000 g ai/ha, visual rating, scale 0 to 100 (0 no effect, 100 complete control), 13 to 15 days
# In short: as §3
# [18] = system: rice; assay: Test C flooded paddy test; assay type: in vivo, Oryza sativa
# In short: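 Plants were grown to the 1- to 4-leaf stage (2–18 cm) and then treated postemergence, or grown to the 2-leaf stage for the flooded paddy test. They were held in a greenhouse for 12 to 14 days and then scored by eye against controls, where 0 is no effect and 100 is complete control.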
# [19] = system: smallflower umbrella sedge; assay: Test C flooded paddy test; assay type: in vivo, Cyperus difformis
# [20] = system: ducksalad; assay: Test C flooded paddy test; assay type: in vivo, Heteranthera limosa
# [21] = system: barnyardgrass; assay: Test C flooded paddy test; assay type: in vivo, Echinochloa crus-galli
# In short: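 Visual rating, 0 (no effect) to 100 (complete control), vs. controls at 12–14 d in greenhouse. Postemergence: 1–4-leaf plants, 2–18 cm. Paddy: flooded, barnyardgrass at 2-leaf stage.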
# [22] = 500 g ai/ha, visual rating 0-100, 0 no effect, 100 complete control
# [23] = 125 g ai/ha, 0 to 100 scale, 0 is no effect, 100 is complete control
# [24] = 62 g ai/ha, scale 0 to 100 (0 no effect, 100 complete control)
# [25] = 125 g ai/ha, scale 0 to 100 (0 no effect, 100 complete control)
# [26] = 250 g ai/ha, scale of 0 to 100, 0 is no effect, 100 is complete control
# [27] = 500 g ai/ha, visual rating after 12 to 14 days, scale 0 to 100 (0 no effect, 100 complete control)
smiles,measurement,setting,value
CC(=O)c1cccc(NC(=O)c2cc(C(C)(C)C)nn2CC(F)(F)F)c1 [Compound 126],"Plant response rating, Barnyardgrass",[1]; [22],60
same,Barnyardgrass plant response rating,[1]; 125 g ai/ha,0
same,Barnyardgrass plant response rating,[1]; 500 g ai/ha,30
same,"Plant response rating, Barnyardgrass",[1]; [23],40
same,"Plant response rating, Surinam Grass",[2]; [22],20
same,Surinam Grass plant response rating,[2]; 125 g ai/ha,20
same,Surinam Grass plant response rating,[2]; 500 g ai/ha,20
same,"Plant response rating, Surinam Grass",[2]; [23],0
same,"Plant response rating, Cocklebur",[3]; [22],0
same,Cocklebur plant response rating,[3]; 125 g ai/ha,50
same,Cocklebur plant response rating,[3]; 500 g ai/ha,100
same,"Plant response rating, Cocklebur",[3]; [23],0
same,"Plant response rating, Corn",[4]; [22],0
same,Corn plant response rating,[4]; 125 g ai/ha,0
same,Corn plant response rating,[4]; 500 g ai/ha,20
same,"Plant response rating, Corn",[4]; [23],0
same,"Plant response rating, Crabgrass, Large",[5]; [22],30
same,"Crabgrass, Large plant response rating",[5]; 125 g ai/ha,40
same,"Crabgrass, Large plant response rating",[5]; 500 g ai/ha,40
same,"Plant response rating, Crabgrass, Large",[5]; [23],0
same,"Plant response rating, Foxtail, Giant",[6]; [22],0
same,"Foxtail, Giant plant response rating",[6]; 125 g ai/ha,20
same,"Foxtail, Giant plant response rating",[6]; 500 g ai/ha,30
same,"Plant response rating, Foxtail, Giant",[6]; [23],0
same,"Plant response rating, Lambsquarters",[7]; [22],90
same,Lambsquarters plant response rating,[7]; 125 g ai/ha,0
same,Lambsquarters plant response rating,[7]; 500 g ai/ha,60
same,"Plant response rating, Lambsquarters",[7]; [23],0
same,"Plant response rating, Morningglory",[8]; [22],20
same,Morningglory plant response rating,[8]; 125 g ai/ha,0
same,Morningglory plant response rating,[8]; 500 g ai/ha,30
same,"Plant response rating, Morningglory",[8]; [23],0
same,"Plant response rating, Pigweed",[9]; [22],70
same,Pigweed plant response rating,[9]; 125 g ai/ha,40
same,Pigweed plant response rating,[9]; 500 g ai/ha,40
same,"Plant response rating, Pigweed",[9]; [23],0
same,"Plant response rating, Velvetleaf",[10]; [22],20
same,Velvetleaf plant response rating,[10]; 125 g ai/ha,0
same,Velvetleaf plant response rating,[10]; 500 g ai/ha,40
same,"Plant response rating, Velvetleaf",[10]; [23],0
same,Blackgrass plant response rating,[11]; 125 g ai/ha,0
same,Blackgrass plant response rating,[11]; 500 g ai/ha,0
same,Wheat plant response rating,[12]; 125 g ai/ha,0
same,Wheat plant response rating,[12]; 500 g ai/ha,0
same,"Oat, Wild plant response rating",[13]; 125 g ai/ha,30
same,"Oat, Wild plant response rating",[13]; 500 g ai/ha,50
same,Rice plant response rating,[14],20
same,"Sedge, Umbrella plant response rating",[15],80
same,Ducksalad plant response rating,[16],80
same,Barnyardgrass plant response rating,[17],10
same,Rice plant response rating,[18]; [24],0
same,Rice plant response rating,[18]; [25],0
same,Rice plant response rating,[18]; [26],0
same,"Plant response rating, Rice",[18]; [27],0
same,"Sedge, Umbrella plant response rating",[19]; [24],0
same,"Sedge, Umbrella plant response rating",[19]; [25],20
same,"Sedge, Umbrella plant response rating",[19]; [26],20
same,"Plant response rating, Sedge, Umbrella",[19]; [27],50
same,Ducksalad plant response rating,[20]; [24],0
same,Ducksalad plant response rating,[20]; [25],10
same,Ducksalad plant response rating,[20]; [26],25
same,"Plant response rating, Ducksalad",[20]; [27],30
same,Barnyardgrass plant response rating,[21]; [24],0
same,Barnyardgrass plant response rating,"[21]; 125 g ai/ha, scale of 0 to 100, 0 is no effect, 100 is complete control",0
same,Barnyardgrass plant response rating,[21]; [26],20
same,"Plant response rating, Barnyardgrass",[21]; [27],25
